Assay results: patent US4983600A, “Heterocyclic compounds useful as 5-HT3 antagonists” (John Wyeth & Brother Limited, priority 1987, dated 1991)

Experiments:
[1] = potential anxiolytic activity: mouse exploratory activity in a two-compartment light/dark box; format: in vivo; conditions: mice, Student's unpaired t-test vs vehicle, *P<0.05, **P<0.01, ***P<0.001
Method: The compounds of the invention are tested for potential anxiolytic activity by a test procedure measuring mouse exploratory activity in a two-compartment light/dark box based upon the procedure of B Costall et al, Neuropharmacology, 1987, 26, 195-200 and J N Crawley et al, Pharmac. Biochem. Behav., 1980, 13, 167-170. The test involves observing groups of mice placed in an open topped box, one third of which is painted black and illuminated under a dim red light and partitioned from the remainder of the box which is painted white and brightly illuminated. Access between the two sections is via an opening in the centre of the partition. The groups of mice are treated with vehicle or test compound and various behavioural parameters of the animals are measured including the number of exploratory rearings made by the mice in each section and the number of times the mice cross lines marked on the floor of each section. For each treatment group the mean number of line crossings and rears in each section of the box are calculated. Differences between drug-treated groups and vehicle-treated controls are compared using Student's unpaired t-test. […] Test compounds are considered to be active if they induce a similar set of changes and, in particular, if they produce a significant (p<0.05) increase in rearing activity in the light section of the box.

5-HT3 receptors = biological target: T1, 5-HT3 receptors (Oryctolagus cuniculus, UniProt A0A5F9C9J3); assay: 5-HT3 antagonistic activity in the isolated right atrium of the rabbit heart; format: cell-based; conditions: 10^-5 M 5-HT, read-out: -log IC50 (chronotropic response to 10^-5 M 5-HT) (converted)
T1 construct: isolated right atrium of the rabbit heart; from tissue; host or cells: rabbit heart, isolated right atrium (sympathetic nerve terminals)
T1 sequence (A0A5F9C9J3 1-494): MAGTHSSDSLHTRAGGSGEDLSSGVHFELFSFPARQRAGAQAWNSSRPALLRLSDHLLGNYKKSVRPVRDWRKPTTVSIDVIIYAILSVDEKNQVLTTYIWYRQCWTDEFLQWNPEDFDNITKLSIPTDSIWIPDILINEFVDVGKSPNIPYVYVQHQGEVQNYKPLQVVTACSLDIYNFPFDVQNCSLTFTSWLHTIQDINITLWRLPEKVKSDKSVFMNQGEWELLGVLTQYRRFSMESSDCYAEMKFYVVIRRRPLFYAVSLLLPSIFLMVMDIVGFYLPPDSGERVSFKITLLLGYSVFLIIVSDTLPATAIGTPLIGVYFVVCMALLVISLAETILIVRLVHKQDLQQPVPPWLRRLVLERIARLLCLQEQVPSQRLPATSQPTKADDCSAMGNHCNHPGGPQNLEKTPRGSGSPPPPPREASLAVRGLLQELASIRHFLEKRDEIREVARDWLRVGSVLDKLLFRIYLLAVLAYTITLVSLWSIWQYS
Method: In particular they antagonise specific 5-hydroxytryptamine (5-HT) receptors in warm blooded animals. […] 5-HT3 -antagonists are also termed "antagonists of "neuronal" 5-hydroxytryptamine receptors" and "serotonin (5-hydroxytryptamine) M-receptor antagonists". Such compounds have been described as being useful inter alia in the treatment of migraine, emesis, anxiety, gastrointestinal disorders and as anti-psychotics.
The compounds of the invention are tested for 5-HT3 antagonistic activity in the isolated right atrium of the rabbit heart based upon the method of Fozard J. R., Naunyn-Schmiedeberg's Arch. Pharmacol., 1984, 326, 36-44. This procedure relies upon the ability of 5-HT to stimulate 5-HT3 receptors present on sympathetic nerve terminals in the heart, causing release of noradrenaline which evokes an increase in the spontaneous rate of beating. The antagonist potency is expressed as -log IC50 (where IC50 is the chronotropic response to 10^-5 M 5-HT by 50%)

[2] = 2.0 mg/kg s.c., standard anxiolytic

Compound | % Change Relative to Controls: Line Crossings [1, 2] | % Change Relative to Controls: Rears [1, 2] | IC50 (5-HT3 receptors) [nM] | % Change Relative to Controls: Line Crossings ([1]; 0.1 mg/kg s.c.) | % Change Relative to Controls: Rears ([1]; 0.1 mg/kg s.c.) | % Change Relative to Controls: Line Crossings ([1]; 1.0 mg/kg s.c.) | % Change Relative to Controls: Rears ([1]; 1.0 mg/kg s.c.)
CNC1=Nc2ccc(Cl)cc2C(c2ccccc2)=[N+]([O-])C1 [Chlordiazepoxide, reference compound] | +42% | +77% |  |  |  |  | 
O=C(Nc1cc(Cl)cc(Cl)c1)NC1CN2CCC1CC2 (stereo not shown) [Example 1] |  |  | 5.01 | +40% | +85% |  | 
COc1ccccc1C(=O)NC(=O)NC1CN2CCC1CC2 (stereo not shown) [Example 5, N-[[[1-Azabicyclo[2.2.2]octan-3-yl]amino]carbonyl]-2-methoxybenzamide] |  |  | 2.14 | +20% | +73% |  | 
O=C(Nc1cc(Cl)cc(Cl)c1)N[C@@H]1CN2CCC1CC2 [Example 12, (S)-(-)-N-(1-Azabicyclo[2.2.2]octan-3-yl)-N'-(3,5-dichlorophenyl)urea] |  |  | 0.501 |  |  | +42% | +75%
O=C(Nc1cc(Cl)cc(Cl)c1)N[C@H]1CN2CCC1CC2 [Example 13, (R)-(+)-N-(1-Azabicyclo[2.2.2]octan-3-yl)-N'-(3,5-dichlorophenyl)urea] |  |  |  | +69% | +90% |  | 
